Results on 6 molecules are retold here after patent publication US9403823B2, “Protein kinase inhibitors” (ORIBASE PHARMA, priority 2012, dated 2016).

One may read the inhibition as the change of the read-out against control, counted positive when it falls. Broadly, the EC50 is the concentration that produces a half-maximal response.

The target of one experiment is T1, KDR (VEGFR2) (Homo sapiens, UniProt P35968).
T1 construct: purchased Invitrogen
The experiment can be described thus: In vitro kinase assay (Z'-LYTE), KDR (VEGFR2). In kind it is biochemical. The conditions noted are these: read-out: % of inhibition of the kinase compared to the control. The method, then:
(§1) 1) In Vitro Kinase Assays (Table 10 to Table 21)
(§2) The inhibitory activity of the compounds on several kinases including BRAF, EGFR (ErbB1), EGFR (ErbB1) T790M L858R, FGFR2, KDR (VEGFR2), PDGFRA (PDGFR alpha), SRC and other was evaluated by Invitrogen using the Z′-LYTE® technology. Briefly, the Z′-LYTE® biochemical assay employs a fluorescence-based, coupled-enzyme format and is based on the differential sensitivity of phosphorylated and non-phosphorylated peptides to proteolytic cleavage. The peptide substrate is labeled with two fluorophores—one at each end—that make up a FRET pair. A ratiometric method, which calculates the ratio (the Emission Ratio) of donor emission to acceptor emission after excitation of the donor fluorophore at 400 nm, is used to quantitate reaction progress.
(§3) The compounds are screened in 1% DMSO (final) in the well. For 10 point titrations, 3-fold serial dilutions are conducted from the starting concentration. All Peptide/Kinase Mixtures are diluted to a 2× working concentration in the appropriate Kinase Buffer. All ATP Solutions are diluted to a 4× working concentration in Kinase Buffer (50 mM HEPES pH 7.5, 0.01% BRIJ-35, 10 mM MgCl2, 1 mM EGTA). ATP Km apparent is previously determined using a Z′-LYTE® assay.
(§4) Each compound was incubated at a concentration of 100 nM (excepted to test the activity against ABL and ABL T315I for which the compounds were incubated at a concentration of 10 μM) and the tables 10 to 21 summarize the results obtained showing the inhibitory power of a compound.

In the next experiment the target is T2, SRC (Homo sapiens, UniProt P12931).
T2 construct: purchased Invitrogen
T2 sequence (P12931 whole entry): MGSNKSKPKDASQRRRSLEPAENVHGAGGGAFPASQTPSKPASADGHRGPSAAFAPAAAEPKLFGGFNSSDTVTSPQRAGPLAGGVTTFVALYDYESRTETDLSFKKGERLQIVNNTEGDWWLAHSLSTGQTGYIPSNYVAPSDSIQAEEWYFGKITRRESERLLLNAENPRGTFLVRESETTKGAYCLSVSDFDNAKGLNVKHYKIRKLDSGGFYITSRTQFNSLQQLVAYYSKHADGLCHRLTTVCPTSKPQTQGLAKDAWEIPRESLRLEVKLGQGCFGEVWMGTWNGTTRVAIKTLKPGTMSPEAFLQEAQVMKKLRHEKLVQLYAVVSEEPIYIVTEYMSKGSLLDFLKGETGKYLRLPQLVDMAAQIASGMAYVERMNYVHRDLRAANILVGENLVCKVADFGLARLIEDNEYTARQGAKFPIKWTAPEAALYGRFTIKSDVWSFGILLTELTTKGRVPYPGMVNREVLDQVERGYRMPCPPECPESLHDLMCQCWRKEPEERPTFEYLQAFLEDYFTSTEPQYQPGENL
Kind of experiment: In vitro kinase assay (Z'-LYTE), SRC. The conditions noted are these: read-out: % of inhibition of the kinase compared to the control. In kind it is biochemical. As for the experimental part:
as §1, §2, §3, §4

The target in another experiment is T3, EGFR (ErbB1) (Homo sapiens, UniProt P00533).
T3 construct: purchased Invitrogen
T3 sequence (P00533 25-1210): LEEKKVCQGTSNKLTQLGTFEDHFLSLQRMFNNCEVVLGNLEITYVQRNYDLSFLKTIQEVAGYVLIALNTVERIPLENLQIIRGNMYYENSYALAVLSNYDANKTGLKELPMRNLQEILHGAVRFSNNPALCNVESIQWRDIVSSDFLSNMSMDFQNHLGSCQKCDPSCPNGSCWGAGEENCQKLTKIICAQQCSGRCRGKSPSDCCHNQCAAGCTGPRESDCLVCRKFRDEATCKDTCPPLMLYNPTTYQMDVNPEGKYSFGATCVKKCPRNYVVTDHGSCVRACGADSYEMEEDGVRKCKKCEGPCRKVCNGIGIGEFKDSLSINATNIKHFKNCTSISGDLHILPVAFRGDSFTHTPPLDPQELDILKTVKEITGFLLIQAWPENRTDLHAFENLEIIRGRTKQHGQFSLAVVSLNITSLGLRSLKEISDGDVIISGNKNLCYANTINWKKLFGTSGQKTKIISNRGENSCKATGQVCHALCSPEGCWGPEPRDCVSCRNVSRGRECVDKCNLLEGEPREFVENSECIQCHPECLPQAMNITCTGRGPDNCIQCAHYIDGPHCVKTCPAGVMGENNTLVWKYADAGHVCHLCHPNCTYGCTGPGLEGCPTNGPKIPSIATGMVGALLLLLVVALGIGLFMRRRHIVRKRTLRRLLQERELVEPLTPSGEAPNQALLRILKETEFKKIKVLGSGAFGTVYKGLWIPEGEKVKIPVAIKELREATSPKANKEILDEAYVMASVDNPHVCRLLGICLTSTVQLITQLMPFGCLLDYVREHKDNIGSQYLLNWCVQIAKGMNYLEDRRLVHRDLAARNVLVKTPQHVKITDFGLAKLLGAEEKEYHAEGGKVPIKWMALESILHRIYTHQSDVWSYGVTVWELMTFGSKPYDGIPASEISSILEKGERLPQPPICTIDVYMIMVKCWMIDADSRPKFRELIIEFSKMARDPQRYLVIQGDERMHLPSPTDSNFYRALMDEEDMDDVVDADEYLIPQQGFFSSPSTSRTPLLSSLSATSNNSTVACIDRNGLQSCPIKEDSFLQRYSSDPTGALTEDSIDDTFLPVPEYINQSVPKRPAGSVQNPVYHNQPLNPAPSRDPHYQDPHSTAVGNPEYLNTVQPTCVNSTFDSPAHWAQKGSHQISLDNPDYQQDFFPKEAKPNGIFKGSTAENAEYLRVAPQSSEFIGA
Kind of experiment: In vitro kinase assay (Z'-LYTE), EGFR (ErbB1). In kind it is biochemical. The conditions noted are these: read-out: % of inhibition of the kinase compared to the control. The method, then:
as §1, §2, §3, §4

The test system of the next experiment is HepG2 cell line. Kind of experiment: In vitro cell proliferation assay (MTT), HepG2. The format is cell-based. The conditions noted are these: Homo sapiens, read-out: EC50, anti-proliferative activity. The method, then:
(§5) 2) In Vitro Cell Proliferation Assays (Table 22 to Table 35)
(§6) Cancer cell lines (5×10^3 cells per well) or HUVEC (1×10^4 cells per well) or HRMEC (1×10^4 cells per well) were distributed in 96-well plates and incubating in duplicate with escalating concentrations (10 nM to 3 μM) of compounds for 72 hr. Cell proliferation was measured using MTT (3[4,5-dimethylthiazol-2-yl]-2,5-diphenyltetrazolium bromide).

For a further experiment, the target named is T4, FGFR2 (Homo sapiens, UniProt P21802).
T4 construct: purchased Invitrogen
T4 sequence (P21802 22-821): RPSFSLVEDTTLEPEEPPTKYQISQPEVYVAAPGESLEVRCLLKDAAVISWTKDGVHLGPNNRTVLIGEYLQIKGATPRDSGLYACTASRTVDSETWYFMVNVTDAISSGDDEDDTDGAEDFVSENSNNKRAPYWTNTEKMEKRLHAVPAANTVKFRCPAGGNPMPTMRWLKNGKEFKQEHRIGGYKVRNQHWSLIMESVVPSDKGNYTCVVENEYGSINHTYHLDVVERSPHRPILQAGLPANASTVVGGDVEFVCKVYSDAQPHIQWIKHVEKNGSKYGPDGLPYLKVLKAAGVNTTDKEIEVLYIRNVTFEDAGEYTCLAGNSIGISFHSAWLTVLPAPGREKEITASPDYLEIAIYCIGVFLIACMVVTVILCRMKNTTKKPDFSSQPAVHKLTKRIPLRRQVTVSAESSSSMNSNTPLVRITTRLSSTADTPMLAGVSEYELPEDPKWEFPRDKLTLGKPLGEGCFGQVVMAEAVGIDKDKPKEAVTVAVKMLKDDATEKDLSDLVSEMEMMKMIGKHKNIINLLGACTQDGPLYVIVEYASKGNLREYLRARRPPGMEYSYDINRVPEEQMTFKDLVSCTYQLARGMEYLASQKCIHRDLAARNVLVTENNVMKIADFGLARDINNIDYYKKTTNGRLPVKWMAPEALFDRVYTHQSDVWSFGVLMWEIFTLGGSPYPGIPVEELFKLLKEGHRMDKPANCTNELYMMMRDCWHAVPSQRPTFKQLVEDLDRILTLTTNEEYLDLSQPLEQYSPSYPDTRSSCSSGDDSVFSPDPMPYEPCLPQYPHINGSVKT
Kind of experiment: In vitro kinase assay (Z'-LYTE), FGFR2. The format is biochemical. The conditions noted are these: read-out: % of inhibition of the kinase compared to the control. The method, then:
as §1, §2, §3, §4

The next experiment has as its target T5, PDGFRA (PDGFR alpha) (Homo sapiens, UniProt P16234).
T5 construct: purchased Invitrogen
Kind of experiment: In vitro kinase assay (Z'-LYTE), PDGFRA. In kind it is biochemical. The note with it: read-out: % of inhibition of the kinase compared to the control. The method, then:
as §1, §2, §3, §4

In a further experiment the target is T6, BRAF (Homo sapiens, UniProt P15056).
T6 construct: purchased Invitrogen
Kind of experiment: In vitro kinase assay (Z'-LYTE), BRAF. In kind it is biochemical. The conditions noted are these: read-out: % of inhibition of the kinase compared to the control. The method, then:
as §1, §2, §3, §4

The subject of another experiment is HUVEC. Kind of experiment: In vitro cell proliferation assay (MTT), HUVEC. In kind it is cell-based. The note with it: Homo sapiens, read-out: EC50, anti-proliferative activity. As for the experimental part:
as §5, §6

Read-outs that look alike come from different tables or passages of the source.

T5 sequence (P16234 24-1089): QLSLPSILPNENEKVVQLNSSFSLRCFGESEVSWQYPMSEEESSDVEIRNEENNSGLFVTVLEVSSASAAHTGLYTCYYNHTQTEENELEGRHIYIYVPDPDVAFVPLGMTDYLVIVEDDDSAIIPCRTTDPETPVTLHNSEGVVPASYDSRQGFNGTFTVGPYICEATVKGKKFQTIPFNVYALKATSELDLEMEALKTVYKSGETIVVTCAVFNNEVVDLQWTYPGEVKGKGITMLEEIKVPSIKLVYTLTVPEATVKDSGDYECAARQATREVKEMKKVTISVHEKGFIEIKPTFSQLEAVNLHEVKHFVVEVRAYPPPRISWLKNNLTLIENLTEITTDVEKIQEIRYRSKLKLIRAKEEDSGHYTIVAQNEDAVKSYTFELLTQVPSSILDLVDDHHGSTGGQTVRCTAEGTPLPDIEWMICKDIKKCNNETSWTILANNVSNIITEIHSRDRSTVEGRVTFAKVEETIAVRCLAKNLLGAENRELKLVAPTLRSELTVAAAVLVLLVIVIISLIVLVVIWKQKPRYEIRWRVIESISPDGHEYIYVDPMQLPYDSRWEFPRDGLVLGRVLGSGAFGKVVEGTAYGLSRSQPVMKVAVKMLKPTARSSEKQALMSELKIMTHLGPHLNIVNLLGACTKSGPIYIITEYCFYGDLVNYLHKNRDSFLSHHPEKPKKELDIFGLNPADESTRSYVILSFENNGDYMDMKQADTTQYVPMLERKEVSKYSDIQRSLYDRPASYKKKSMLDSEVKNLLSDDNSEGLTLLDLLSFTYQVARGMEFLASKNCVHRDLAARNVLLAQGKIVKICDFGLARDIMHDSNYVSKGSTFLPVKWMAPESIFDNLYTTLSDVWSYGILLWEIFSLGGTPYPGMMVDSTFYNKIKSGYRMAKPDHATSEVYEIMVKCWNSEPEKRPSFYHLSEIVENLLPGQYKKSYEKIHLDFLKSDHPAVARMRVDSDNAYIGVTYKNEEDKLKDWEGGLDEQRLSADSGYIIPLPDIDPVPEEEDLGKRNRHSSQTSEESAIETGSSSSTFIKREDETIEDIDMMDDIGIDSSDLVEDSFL
T1 sequence (P35968 20-1356): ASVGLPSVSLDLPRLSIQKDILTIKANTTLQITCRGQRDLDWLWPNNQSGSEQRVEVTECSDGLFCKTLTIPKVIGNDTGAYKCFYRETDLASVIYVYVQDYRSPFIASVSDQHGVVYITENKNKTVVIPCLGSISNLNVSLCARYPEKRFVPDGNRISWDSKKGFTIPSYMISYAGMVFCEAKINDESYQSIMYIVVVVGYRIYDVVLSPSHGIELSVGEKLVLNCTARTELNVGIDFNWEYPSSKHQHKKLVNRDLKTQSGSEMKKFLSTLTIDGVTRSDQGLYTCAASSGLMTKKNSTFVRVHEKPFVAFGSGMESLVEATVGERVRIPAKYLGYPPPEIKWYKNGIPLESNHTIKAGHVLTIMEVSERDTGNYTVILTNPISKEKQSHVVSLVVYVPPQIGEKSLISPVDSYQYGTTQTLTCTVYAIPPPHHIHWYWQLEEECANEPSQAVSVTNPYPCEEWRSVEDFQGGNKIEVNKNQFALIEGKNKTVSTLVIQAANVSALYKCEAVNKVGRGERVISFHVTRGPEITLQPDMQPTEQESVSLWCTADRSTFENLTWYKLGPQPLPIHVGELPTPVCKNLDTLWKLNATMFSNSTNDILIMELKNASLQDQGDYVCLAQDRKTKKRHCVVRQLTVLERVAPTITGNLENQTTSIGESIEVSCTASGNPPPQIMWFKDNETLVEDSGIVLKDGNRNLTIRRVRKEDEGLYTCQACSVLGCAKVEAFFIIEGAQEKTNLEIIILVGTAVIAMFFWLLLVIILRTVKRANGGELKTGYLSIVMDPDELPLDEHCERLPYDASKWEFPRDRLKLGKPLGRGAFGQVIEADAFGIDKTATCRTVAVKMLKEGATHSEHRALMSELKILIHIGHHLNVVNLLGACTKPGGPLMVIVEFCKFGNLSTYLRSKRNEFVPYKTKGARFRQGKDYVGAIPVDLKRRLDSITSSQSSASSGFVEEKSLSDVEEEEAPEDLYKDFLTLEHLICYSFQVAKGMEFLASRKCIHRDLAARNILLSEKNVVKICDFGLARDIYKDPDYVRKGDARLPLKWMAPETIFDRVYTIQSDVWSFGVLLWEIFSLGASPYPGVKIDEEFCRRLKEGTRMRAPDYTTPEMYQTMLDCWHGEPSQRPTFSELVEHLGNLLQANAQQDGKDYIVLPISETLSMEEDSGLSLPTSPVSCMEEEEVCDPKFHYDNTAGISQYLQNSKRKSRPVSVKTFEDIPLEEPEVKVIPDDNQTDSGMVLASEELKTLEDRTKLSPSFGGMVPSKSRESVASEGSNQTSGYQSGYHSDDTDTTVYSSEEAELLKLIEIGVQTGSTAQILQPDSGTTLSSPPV

Turning to `CC(=O)c1cc2cc(NCc3cc(NC(=O)c4ccc(C)c(C(F)(F)F)c4)ccc3C)cnc2[nH]1` [OR0890, N-{3-[(2-Acetyl-1H-pyrrolo[2,3-b]pyridin-5-ylamino)-methyl]-4-methyl-phenyl}-4-methyl-3-trifluoromethyl-benzamide], the inhibition at 0.1 µM is under 50% on KDR (VEGFR2); at least 50% on SRC; at least 50% at EGFR (ErbB1); under 50% on FGFR2; at least 50% at PDGFRA (PDGFR alpha); under 50% on BRAF. Moreover, the 50% effective concentration (EC50) was in the range of 100 to 1000 nM in the experiment with HepG2 cell line (HepG2, 72 h) and 100 to 1000 nM with HUVEC (72 h).

`CC(=O)c1cc2cc(NCc3cc(NC(=O)c4ccc(Cl)c(C(F)(F)F)c4)ccc3C)cnc2[nH]1` [OR0891, N-{3-[(2-Acetyl-1H-pyrrolo[2,3-b]pyridin-5-ylamino)-methyl]-4-methyl-phenyl}-4-chloro-3-trifluoromethyl-benzamide]: the inhibition at 0.1 µM on KDR (VEGFR2), at SRC, at EGFR (ErbB1), on FGFR2, at PDGFRA (PDGFR alpha) and on BRAF was under 50% each time. The EC50 in the experiment on HepG2 cell line (HepG2, 72 h) fell in the range of 100 to 1000 nM; in the experiment on HUVEC (72 h), 100 to 1000 nM.

For `CC(=O)c1cc2cc(NCc3cc(NC(=O)Nc4cccc(C(F)(F)F)c4)ccc3C)cnc2[nH]1` [OR0895, 1-{3-[(2-Acetyl-1H-pyrrolo[2,3-b]pyridin-5-ylamino)-methyl]-4-methyl-phenyl}-3-(3-trifluoromethyl-phenyl)-urea], the inhibition at 0.1 µM at KDR (VEGFR2) was under 50%; on SRC, under 50%; at EGFR (ErbB1) it was under 50%; on FGFR2, under 50%; at PDGFRA (PDGFR alpha) it was at least 50%; at BRAF, under 50%. Further, the EC50 was 100 to 1000 nM with HepG2 cell line (HepG2, 72 h) and at least 1000 nM in the experiment with HUVEC (72 hr, MTT).

For `CC(=O)c1cc2cc(NCc3cc(NC(=O)Nc4cccnc4)ccc3C)cnc2[nH]1` [OR0897, 1-{3-[(2-Acetyl-1H-pyrrolo[2,3-b]pyridin-5-ylamino)-methyl]-4-methyl-phenyl}-3-pyridin-3-yl-urea], the inhibition at 0.1 µM is under 50% at KDR (VEGFR2); under 50% on SRC; under 50% on EGFR (ErbB1); under 50% at FGFR2; at least 50% at PDGFRA (PDGFR alpha); at least 50% on BRAF. Also, the EC50 with HepG2 cell line (HepG2, 72 h) was at most 100 nM; in the experiment on HUVEC (72 hr, MTT) it was at least 1000 nM.

On to `CC(=O)c1cc2cc(NCc3cc(NC(=O)C4CC4)ccc3C)cnc2[nH]1` [OR0929, Cyclopropanecarboxylic acid {3-[(2-acetyl-1H-pyrrolo[2,3-b]pyridin-5-ylamino)-methyl]-4-methyl-phenyl}-amide], for which the inhibition at 0.1 µM on KDR (VEGFR2), on SRC, on EGFR (ErbB1), at FGFR2, at PDGFRA (PDGFR alpha) and on BRAF was under 50% throughout. Also, the EC50 in the experiment with HepG2 cell line (HepG2, 72 hr, MTT) is at least 1000 nM; in the experiment on HUVEC (72 hr, MTT), at least 1000 nM.

Consider `CC(=O)c1cc2cc(NCc3cc(NS(=O)(=O)c4cccc(C(F)(F)F)c4)ccc3C)cnc2[nH]1` [OR0930, N-{3-[(2-Acetyl-1H-pyrrolo[2,3-b]pyridin-5-ylamino)-methyl]-4-methyl-phenyl}-3-trifluoromethyl-benzenesulfonamide], for which the inhibition at 0.1 µM at KDR (VEGFR2), at SRC, at EGFR (ErbB1), on FGFR2, on PDGFRA (PDGFR alpha) and on BRAF was under 50% in each case. Also, the EC50 in the experiment on HepG2 cell line (HepG2, 72 hr, MTT) was at least 1000 nM; in the experiment on HUVEC (72 hr, MTT), at least 1000 nM.
